Results reported in publication PMC9232612, “A phase 1b randomised controlled trial of a glucagon-like peptide-1 and glucagon receptor dual agonist IBI362 (LY3305677) in Chinese patients with type 2 diabetes” (Nature Communications, 2022).

Legend:
[1] = single dose range of 0.03-5 mg; earlier study, ref not given; cited from earlier work
Description: page 21: safety follow-up visit. The safety data of this patient was collected and included in the analysis. We made this clear in the Results (Lines 210-213). 6. For the tables that present treatment emergent adverse events (Table 2 and Supplementary Table 2), do the numbers in the table correspond to the number of events, or the number of patients who experienced at least one event? Response: Safety data in this study were presented as number of patients (percentage). We made this clear in the footnotes (Fig. 2 and S3) of relevant tables and apologized for the neglect. 7. For Supplementary T ...

[2] = system: Chinese patients with T2D; experiment: Mixed-meal tolerance test (MTT) and fasting: total GLP-1; type: in vivo, human; conditions: week 12; patients receiving IBI362
Experimental: (§1) HbA1c (2200101, Bio-Rad, USA), blood glucose (05168791190, Roche Diagnostics, Germany), insulin (12017547122, Roche Diagnostics, Germany), C peptide (03184897190, Roche Diagnostics, Germany), total GLP-1 (GLP-1 [7–36] amide and its metabolite, GLP-1 [9–36] amide, 10-1278-01, Mercodia AB, Sweden) and OXM (AL-139, AnshLabs, USA) tests were performed according to the manufactures’ instruction manuals in a central laboratory (KingMed Diagnostics, Guangzhou, China). HbA1c was measured using a Bio-rad D-100 Haemoglobin Testing System (Bio-rad). Blood glucose was measured using a Roche Cobas c702 analyser (Roche Diagnostics). Insulin and C peptide were measured using a Roche […] analyser (Roche Diagnostics). GLP-1 and OXM were measured using a Tecan Infinite M Plex microplate reader (TECAN).
(§2) Standard non-compartmental pharmacokinetics methods were used to analyze IBI362 plasma concentration data using Pkanalix 2020R1 (Lixoft, Antony, France). Secondary efficacy outcomes included change from baseline to week 12 in HbA1c, fasting plasma glucose (FPG), fasting insulin levels, change from baseline to week 12 in post-mixed-meal tolerance test (post-MTT) glucose, insulin, C peptide, GLP-1 and OXM levels, as well as seven-point self-measured blood glucose (SMBG) profile. […]
3. […]
(§3) bag is added and mixed well. The time is counted from the first bite of eating. […]

human GLP-1 receptors = conditions: in vitro; cited from earlier work
Description: (§4) IBI362 (also known as LY3305677) is a once-weekly synthetic peptide analogue of mammalian OXM, with a fatty-acyl moiety to extend the half-life[13].

mice = conditions: cited from earlier work
Description: as §4

diet-induced obese mice = conditions: preclinical data quoted in the protocol, ref not given; cited from earlier work
Description: page 42: IBI362 Innovent Biologics (Suzhou) Co., Ltd. CIBI362A101 3%, abdominal obesity [waist circumference ≥ 90 cm (male) or ≥ 85 cm (female)] patients up to 45. 4% [15]. Although the occurrence of obesity is low compared with Caucasians, body fat tends t o accumulate in the abdominal cavity which is more likely to form abdominal obesity. Weight gain is an independent risk factor for the development of T2DM. Increased body weight or waist circumference can aggravate insulin resistance, increase the risk of T2DM, and the difficulty of glycemic control. Compared with patients with obesity ...

[3] = system: Chinese patients with T2D; experiment: Mixed-meal tolerance test (MTT) and fasting: OXM; type: in vivo, human; conditions: week 12; patients receiving IBI362
Experimental: as §1, §2, §3

For `CC(C)C[C@H](NC(=O)[C@H](CC(C)C)NC(=O)[C@H](Cc1c[nH]c2ccccc12)NC(=O)[C@H](CCC(=O)O)NC(=O)[C@@H](NC(=O)[C@H](Cc1ccccc1)NC(=O)[C@H](CCC(=O)O)NC(=O)[C@H](CCCCNC(=O)COCCOCCNC(=O)COCCOCCNC(=O)CC[C@H](NC(=O)CCCCCCCCCCCCCCCCCCC(=O)O)C(=O)O)NC(=O)[C@H](C)NC(=O)[C@H](CCCCN)NC(=O)[C@H](CCCCN)NC(=O)[C@H](CCC(=O)O)NC(=O)[C@H](CC(=O)O)NC(=O)[C@H](CC(C)C)NC(=O)[C@H](Cc1ccc(O)cc1)NC(=O)[C@H](CCCCN)NC(=O)[C@H](CO)NC(=O)[C@H](Cc1ccc(O)cc1)NC(=O)[C@H](CC(=O)O)NC(=O)[C@H](CO)NC(=O)[C@@H](NC(=O)[C@H](Cc1ccccc1)NC(=O)[C@@H](NC(=O)CNC(=O)[C@H](CCC(N)=O)NC(=O)C(C)(C)NC(=O)[C@@H](N)Cc1c[nH]cn1)[C@@H](C)O)[C@@H](C)O)C(C)C)C(=O)N[C@@H](CCC(=O)O)C(=O)NCC(=O)NCC(=O)N1CCC[C@H]1C(=O)N[C@@H](CO)C(=O)N[C@@H](CO)C(=O)NCC(N)=O` [IBI362], the pharmacokinetic profile [1] is listed as “linear”, the “post-MTT GLP-1 excursion” value [2] is listed as “markedly suppressed” and the binding (human GLP-1 receptors) is listed as “potently bound”. The body weight (mice; both Gcgr KO and Glp1r KO settings) was “decreased body weight”, the energy expenditure (mice; mice) was “increased energy expenditure” and the glucose control (mice; mice) was “improved glucose control”. For the same molecule, the “weight loss effects (decreased appetite, weight loss)” value (diet-induced obese mice) was “significant weight loss effects” and the “post-MTT OXM excursion” value [3] was “markedly suppressed”.
